Literature values in publication PMC8000448, “Inhibitory Effects of Schisandra Lignans on Cytochrome P450s and Uridine 5′-Diphospho-Glucuronosyl Transferases in Human Liver Microsomes” (Pharmaceutics, 2021).
Like-named read-outs stand apart in the source and are kept apart here.

Tests used:
recombinant CYP3A4 [1] = details: recombinant CYP3A4 isoform; read-out: IC50, CYP3A-mediated midazolam 1′-hydroxylation; cited from earlier work
recombinant CYP3A4 [2] = details: rCYP3A4, fluorescent substrate; cited from earlier work
CYP3A [3] = details: read-out: Ki, CYP3A-mediated testosterone hydroxylation; cited from earlier work
CYP1A2 = system: CYP1A2; set-up: method as in PMID 15342469; details: cited from earlier work
CYP2C9 = system: CYP2C9; set-up: method as in PMID 15342469; details: cited from earlier work
CYP2C19 = system: CYP2C19; set-up: method as in PMID 15342469; details: cited from earlier work
CYP2D6 = system: CYP2D6; set-up: method as in PMID 15342469; details: cited from earlier work
CYP3A [4] = system: CYP3A; set-up: method as in PMID 15342469; details: read-out: IC50, CYP3A-mediated testosterone hydroxylase activity; cited from earlier work
recombinant CYP2C19 = system: recombinant CYP2C19; set-up: method as in PMID 24855828; details: read-out: IC50, CYP2C19-catalyzed omeprazole hydroxylation; cited from earlier work
CYP3A [5] = details: rats; cited from earlier work

Row | Molecule | IC50 (recombinant CYP3A4 [1]) | IC50 (recombinant CYP3A4 [2]) | Ki (CYP3A [3]) | IC50 (CYP1A2) | IC50 (CYP2C9) | IC50 (CYP2C19) | IC50 (CYP2D6) | IC50 (CYP3A [4]) | IC50 (recombinant CYP2C19) | Plasma concentrations of midazolam (CYP3A [5])
1 | COc1cc2c(c(OC)c1OC)-c1c(cc3c(c1OC)OCO3)[C@H](OC(=O)c1ccccc1)[C@@](C)(O)[C@@H](C)C2 [gomisin G, reference compound] | 0.19 µM |  |  |  |  |  |  |  |  | 
2 | gomisin A | 1.86 µM | 1.39 µM | 1.01 µM | > 10 µM | > 10 µM | > 10 µM | > 10 µM |  |  | 
3 | gomisin B |  |  |  | > 10 µM | > 10 µM | > 10 µM | > 10 µM | 0.26 to 0.62 µM |  | 
4 | COc1cc2c(c(OC)c1OC)-c1c(cc(OC)c(OC)c1OC)C[C@H](C)[C@H](C)C2 [schisandrin A, reference compound] |  |  |  |  |  |  |  |  | 86.4 µM | markedly increases
